One experiment concerns the target T1, COX-1 (Ovis aries, UniProt P05979).
T1 construct: gene PTGS1; homodimer
T1 sequence (P05979 25-600): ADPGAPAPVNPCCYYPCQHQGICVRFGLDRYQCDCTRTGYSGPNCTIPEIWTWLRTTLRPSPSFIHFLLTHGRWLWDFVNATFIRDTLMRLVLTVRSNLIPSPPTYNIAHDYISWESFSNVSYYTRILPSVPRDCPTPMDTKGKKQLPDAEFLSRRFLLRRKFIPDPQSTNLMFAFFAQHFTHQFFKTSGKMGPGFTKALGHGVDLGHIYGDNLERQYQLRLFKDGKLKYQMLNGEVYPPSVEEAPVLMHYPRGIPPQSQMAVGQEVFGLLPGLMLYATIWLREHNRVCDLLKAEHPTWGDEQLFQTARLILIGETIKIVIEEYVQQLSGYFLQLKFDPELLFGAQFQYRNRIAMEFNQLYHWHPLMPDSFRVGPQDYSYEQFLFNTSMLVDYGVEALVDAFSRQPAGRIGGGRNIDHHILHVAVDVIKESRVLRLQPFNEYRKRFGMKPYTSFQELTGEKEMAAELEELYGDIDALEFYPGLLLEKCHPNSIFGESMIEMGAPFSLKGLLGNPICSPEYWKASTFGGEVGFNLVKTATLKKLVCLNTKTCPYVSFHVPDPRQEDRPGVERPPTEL
Nature of the experiment: colorimetric COX peroxidase inhibition kit, […] nm. Format: biochemical. The note with it: read-out: Cyclooxygenase Inhibition Assay IC50 [μM] / COX-1.

The target in experiment [1] is T2, bovine serum albumin (BSA) (Bos taurus, UniProt P02769).
T2 construct: gene ALB; mature serum albumin, 583 residues, monomer
Put plainly: intrinsic fluorescence quenching, excitation […] nm. Format: binding. The note with it: 298 K, pH 7.4, no site marker.

T2 sequence (P02769 25-607): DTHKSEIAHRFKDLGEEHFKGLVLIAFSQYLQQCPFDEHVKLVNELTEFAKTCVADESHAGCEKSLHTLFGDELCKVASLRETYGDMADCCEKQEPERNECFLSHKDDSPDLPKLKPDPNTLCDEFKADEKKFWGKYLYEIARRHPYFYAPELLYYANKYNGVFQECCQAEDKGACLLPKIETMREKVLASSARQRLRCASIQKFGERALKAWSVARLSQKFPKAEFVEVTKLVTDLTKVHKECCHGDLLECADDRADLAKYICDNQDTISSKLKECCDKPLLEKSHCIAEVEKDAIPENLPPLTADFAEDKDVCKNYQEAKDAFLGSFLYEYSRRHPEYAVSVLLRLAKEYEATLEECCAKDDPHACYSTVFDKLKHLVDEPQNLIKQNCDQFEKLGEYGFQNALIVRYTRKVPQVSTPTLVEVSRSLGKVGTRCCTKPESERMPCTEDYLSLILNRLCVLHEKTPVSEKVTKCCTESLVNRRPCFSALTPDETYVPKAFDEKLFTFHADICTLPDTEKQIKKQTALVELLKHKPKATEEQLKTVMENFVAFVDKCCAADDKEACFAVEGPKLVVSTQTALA

Turning to `Cc1cc2c(c(=O)n1C)C(=O)N(CN1CCN(c3ccccc3)CC1)C2=O` [A, 5,6-dimethyl-4-oxo-2-[(4-phenyl-1-piperazinyl)methyl]-1H-pyrrolo[3.4-c]pyridine-1,3(2H)-dione], the IC50 on COX-1 was 81.6 µM. For the same compound, the “Double log / Kb × 10^3 [dm^3.mol^-1]” value in experiment [1] is 5.37 × 10^3 dm^3·mol^−1.
The corresponding values for `Cc1cc2c(c(=O)n1C)C(=O)N(CN1CCN(c3cccc(C(F)(F)F)c3)CC1)C2=O` [B] are 93.2 µM and 8.32 × 10^3 dm^3·mol^−1.
In the same order, the values of `COc1ccccc1N1CCN(CN2C(=O)c3cc(C)n(C)c(=O)c3C2=O)CC1` [C] are 95.8 µM and 11.51 × 10^3 dm^3·mol^−1.
In the same order, the values of `COc1nc(C)cc2c1C(=O)N(CN1CCCC1)C2=O` [D, 4-Methoxy–N-[1-(N-pyrrolidine)-methyl]-6-methyl-1H-pyrrolo[3.4-c]pyridine-1,3(2H)-dione] are 76.6 µM and 4.82 × 10^3 dm^3·mol^−1.
On to `COc1nc(C)cc2c1C(=O)N(CCN1CCOCC1)C2=O` [E], for which the IC50 on COX-1 was 99.2 µM. The “Double log / Kb × 10^3 [dm^3.mol^-1]” value in experiment [1] is given as 6.24 × 10^3 dm^3·mol^−1.

These data come from PMC7355801, “Synthesis, Cyclooxygenases Inhibition Activities and Interactions with BSA of N-substituted 1H-pyrrolo[3,4-c]pyridine-1,3(2H)-diones Derivatives” (Molecules, 2020).
